According to patent publication US10800791B2, “Triazole ACC inhibitors and uses thereof” (Gilead Apollo, LLC, priority 2015, dated 2020):
Values after ≈ are worked out from the molar mass of the structure shown. Like-named read-outs stand apart in the source and are kept apart here.

Legend:
Septoria tritici (St) = assay: Growth inhibition assay of fungal pathogens, St; assay type: cell-based; conditions: Zymoseptoria tritici, 48 h, Septoria tritici, read-out: Concentration at 90% Inhibition St
Procedure, shortened: (§1)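 Inhibition percentages reflect 48 h OD600 and visual scores relative to a 2% DMSO control. Test concentrations were 50, 10, 2 ppm or 2, 0.4, 0.08 ppm final, applied to spores in 17% V8 medium.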

human (hACC2) = human (hACC2) (Homo sapiens, UniProt O00763); assay: In vitro ACC inhibition assay (ADP-Glo), hACC2; assay type: biochemical; conditions: 5 nM ACC2, 20 μM ATP, 20 μM acetyl-CoA
Sequence of human (hACC2) (O00763 whole entry): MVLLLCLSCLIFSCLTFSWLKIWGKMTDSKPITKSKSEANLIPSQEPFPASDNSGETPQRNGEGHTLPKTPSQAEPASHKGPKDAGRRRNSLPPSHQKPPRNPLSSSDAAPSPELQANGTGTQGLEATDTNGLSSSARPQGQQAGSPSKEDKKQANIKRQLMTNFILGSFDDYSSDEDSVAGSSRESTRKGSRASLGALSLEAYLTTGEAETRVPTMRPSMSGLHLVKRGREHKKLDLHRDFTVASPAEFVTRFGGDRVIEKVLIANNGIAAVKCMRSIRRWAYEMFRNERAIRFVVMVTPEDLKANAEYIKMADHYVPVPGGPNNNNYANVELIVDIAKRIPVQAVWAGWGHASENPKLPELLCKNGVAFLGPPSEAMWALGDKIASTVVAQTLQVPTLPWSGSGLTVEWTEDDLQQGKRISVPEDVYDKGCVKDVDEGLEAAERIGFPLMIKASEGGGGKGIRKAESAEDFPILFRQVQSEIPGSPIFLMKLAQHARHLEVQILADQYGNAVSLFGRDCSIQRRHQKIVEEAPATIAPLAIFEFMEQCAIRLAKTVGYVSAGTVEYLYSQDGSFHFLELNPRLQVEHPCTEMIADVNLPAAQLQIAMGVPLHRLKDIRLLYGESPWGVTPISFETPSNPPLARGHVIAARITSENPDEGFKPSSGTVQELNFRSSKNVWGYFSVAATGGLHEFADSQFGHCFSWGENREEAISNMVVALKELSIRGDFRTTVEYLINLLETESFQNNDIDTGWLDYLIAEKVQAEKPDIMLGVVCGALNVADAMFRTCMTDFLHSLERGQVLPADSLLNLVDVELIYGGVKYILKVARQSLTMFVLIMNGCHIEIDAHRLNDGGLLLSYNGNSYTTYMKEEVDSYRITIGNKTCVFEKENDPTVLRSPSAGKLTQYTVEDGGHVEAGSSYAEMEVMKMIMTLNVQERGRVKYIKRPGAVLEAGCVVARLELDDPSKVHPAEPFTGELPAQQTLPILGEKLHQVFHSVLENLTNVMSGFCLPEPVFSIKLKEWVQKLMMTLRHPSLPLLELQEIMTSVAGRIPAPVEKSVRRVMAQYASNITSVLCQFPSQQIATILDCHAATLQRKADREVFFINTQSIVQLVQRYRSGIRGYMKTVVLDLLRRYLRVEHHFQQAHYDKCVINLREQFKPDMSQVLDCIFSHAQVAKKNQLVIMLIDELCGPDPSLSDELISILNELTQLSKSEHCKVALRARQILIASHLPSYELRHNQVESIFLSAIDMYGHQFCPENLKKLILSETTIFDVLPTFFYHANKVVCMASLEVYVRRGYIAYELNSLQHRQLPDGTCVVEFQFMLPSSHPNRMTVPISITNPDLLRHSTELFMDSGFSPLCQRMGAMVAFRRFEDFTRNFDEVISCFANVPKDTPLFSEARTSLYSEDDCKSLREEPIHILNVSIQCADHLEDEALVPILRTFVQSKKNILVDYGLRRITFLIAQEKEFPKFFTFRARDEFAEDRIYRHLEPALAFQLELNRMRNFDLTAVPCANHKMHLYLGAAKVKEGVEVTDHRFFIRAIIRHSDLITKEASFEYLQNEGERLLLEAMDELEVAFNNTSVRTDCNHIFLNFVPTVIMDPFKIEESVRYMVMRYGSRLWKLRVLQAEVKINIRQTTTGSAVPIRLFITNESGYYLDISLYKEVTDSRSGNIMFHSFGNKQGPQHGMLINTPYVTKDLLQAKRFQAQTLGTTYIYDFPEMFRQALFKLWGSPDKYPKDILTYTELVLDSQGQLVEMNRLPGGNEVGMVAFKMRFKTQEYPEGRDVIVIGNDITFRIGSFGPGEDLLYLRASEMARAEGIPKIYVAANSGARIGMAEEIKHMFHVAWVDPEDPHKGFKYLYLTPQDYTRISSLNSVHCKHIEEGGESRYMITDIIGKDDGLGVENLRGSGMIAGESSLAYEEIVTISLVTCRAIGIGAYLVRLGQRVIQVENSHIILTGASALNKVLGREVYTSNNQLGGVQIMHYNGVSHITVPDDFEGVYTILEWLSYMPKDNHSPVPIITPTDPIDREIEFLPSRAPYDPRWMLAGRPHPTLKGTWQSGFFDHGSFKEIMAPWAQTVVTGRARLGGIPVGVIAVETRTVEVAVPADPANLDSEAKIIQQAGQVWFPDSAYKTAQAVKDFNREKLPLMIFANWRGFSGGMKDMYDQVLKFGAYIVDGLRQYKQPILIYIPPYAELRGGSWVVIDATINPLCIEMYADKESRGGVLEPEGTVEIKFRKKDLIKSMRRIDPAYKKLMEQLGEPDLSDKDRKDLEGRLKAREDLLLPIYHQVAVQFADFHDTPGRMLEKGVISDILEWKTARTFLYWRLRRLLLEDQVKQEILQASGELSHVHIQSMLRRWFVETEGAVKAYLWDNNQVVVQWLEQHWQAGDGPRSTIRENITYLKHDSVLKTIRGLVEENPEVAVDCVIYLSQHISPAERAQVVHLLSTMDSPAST
Description: The detailed procedure is as follows. […] 10 μL ADP glo reagent was added. […] 20 μL kinase detection reagent was added.

Diplodia maydis (Dm) = assay: Growth inhibition assay of fungal pathogens, Dm; assay type: cell-based; conditions: Stenocarpella maydis, 48 h, Diplodia maydis, read-out: Concentration at 90% Inhibition Dm
Procedure, shortened: as §1

[1] = system: Fusarium moniliforme (Fm); assay: Growth inhibition assay of fungal pathogens, Fm; assay type: cell-based; conditions: Fusarium verticillioides, 48 h, Fusarium moniliforme, read-out: Concentration at 90% Inhibition Fm
Procedure, shortened: as §1

[2] = system: Fusarium virguliforme (Fv); assay: Growth inhibition assay of fungal pathogens, Fv; assay type: cell-based; conditions: 48 h, read-out: Concentration at 90% Inhibition Fv
Procedure, shortened: as §1

[3] = system: Collectotrichum graminicola (Cg); assay: Growth inhibition assay of fungal pathogens, Cg; assay type: cell-based; conditions: 48 h, Collectotrichum graminicola, read-out: Concentration at 90% Inhibition Cg
Procedure, shortened: as §1

[4] = system: Phytophthora capsici (Pc); assay: Growth inhibition assay of fungal pathogens, Pc; assay type: cell-based; conditions: 48 h, read-out: Concentration at 90% Inhibition Pc
Procedure, shortened: as §1

C. parapsilosis = assay: Antifungal Activity Assay (broth microtiter MIC), C. parapsilosis; assay type: cell-based, Candida parapsilosis; conditions: Lodderomyces parapsilosis, ATCC22019, 48 h, ATCC 22019, 3 replicates, MIC recorded at 48 h, read-out: MIC, C. parapsilosis ATCC 22019
Procedure, shortened: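 Broth microdilution per CLSI M27-A3 in RPMI 1640+MOPS, inoculum 2.5×10^3 CFU/mL final from overnight Sabouraud dextrose agar cultures at 35° C. Compounds diluted from DMSO stock to 128 μg/mL in water. MIC read visually versus growth control at 48 h.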

Rhizoctonia solani (Rs) = assay: Growth inhibition assay of fungal pathogens, Rs; assay type: cell-based; conditions: 48 h, mycelial plugs, read-out: Concentration at 90% Inhibition Rs
fungal (fACC2) = fungal (fACC2) (UniProt Q00955); conditions: read-out: fACC2 (in vitro ACC2 Inhibition Assay, IC50), ADP-Glo, 5 nM ACC2, 20 μM ATP, 20 μM acetyl-CoA
Sequence of fungal (fACC2) (Q00955 whole entry): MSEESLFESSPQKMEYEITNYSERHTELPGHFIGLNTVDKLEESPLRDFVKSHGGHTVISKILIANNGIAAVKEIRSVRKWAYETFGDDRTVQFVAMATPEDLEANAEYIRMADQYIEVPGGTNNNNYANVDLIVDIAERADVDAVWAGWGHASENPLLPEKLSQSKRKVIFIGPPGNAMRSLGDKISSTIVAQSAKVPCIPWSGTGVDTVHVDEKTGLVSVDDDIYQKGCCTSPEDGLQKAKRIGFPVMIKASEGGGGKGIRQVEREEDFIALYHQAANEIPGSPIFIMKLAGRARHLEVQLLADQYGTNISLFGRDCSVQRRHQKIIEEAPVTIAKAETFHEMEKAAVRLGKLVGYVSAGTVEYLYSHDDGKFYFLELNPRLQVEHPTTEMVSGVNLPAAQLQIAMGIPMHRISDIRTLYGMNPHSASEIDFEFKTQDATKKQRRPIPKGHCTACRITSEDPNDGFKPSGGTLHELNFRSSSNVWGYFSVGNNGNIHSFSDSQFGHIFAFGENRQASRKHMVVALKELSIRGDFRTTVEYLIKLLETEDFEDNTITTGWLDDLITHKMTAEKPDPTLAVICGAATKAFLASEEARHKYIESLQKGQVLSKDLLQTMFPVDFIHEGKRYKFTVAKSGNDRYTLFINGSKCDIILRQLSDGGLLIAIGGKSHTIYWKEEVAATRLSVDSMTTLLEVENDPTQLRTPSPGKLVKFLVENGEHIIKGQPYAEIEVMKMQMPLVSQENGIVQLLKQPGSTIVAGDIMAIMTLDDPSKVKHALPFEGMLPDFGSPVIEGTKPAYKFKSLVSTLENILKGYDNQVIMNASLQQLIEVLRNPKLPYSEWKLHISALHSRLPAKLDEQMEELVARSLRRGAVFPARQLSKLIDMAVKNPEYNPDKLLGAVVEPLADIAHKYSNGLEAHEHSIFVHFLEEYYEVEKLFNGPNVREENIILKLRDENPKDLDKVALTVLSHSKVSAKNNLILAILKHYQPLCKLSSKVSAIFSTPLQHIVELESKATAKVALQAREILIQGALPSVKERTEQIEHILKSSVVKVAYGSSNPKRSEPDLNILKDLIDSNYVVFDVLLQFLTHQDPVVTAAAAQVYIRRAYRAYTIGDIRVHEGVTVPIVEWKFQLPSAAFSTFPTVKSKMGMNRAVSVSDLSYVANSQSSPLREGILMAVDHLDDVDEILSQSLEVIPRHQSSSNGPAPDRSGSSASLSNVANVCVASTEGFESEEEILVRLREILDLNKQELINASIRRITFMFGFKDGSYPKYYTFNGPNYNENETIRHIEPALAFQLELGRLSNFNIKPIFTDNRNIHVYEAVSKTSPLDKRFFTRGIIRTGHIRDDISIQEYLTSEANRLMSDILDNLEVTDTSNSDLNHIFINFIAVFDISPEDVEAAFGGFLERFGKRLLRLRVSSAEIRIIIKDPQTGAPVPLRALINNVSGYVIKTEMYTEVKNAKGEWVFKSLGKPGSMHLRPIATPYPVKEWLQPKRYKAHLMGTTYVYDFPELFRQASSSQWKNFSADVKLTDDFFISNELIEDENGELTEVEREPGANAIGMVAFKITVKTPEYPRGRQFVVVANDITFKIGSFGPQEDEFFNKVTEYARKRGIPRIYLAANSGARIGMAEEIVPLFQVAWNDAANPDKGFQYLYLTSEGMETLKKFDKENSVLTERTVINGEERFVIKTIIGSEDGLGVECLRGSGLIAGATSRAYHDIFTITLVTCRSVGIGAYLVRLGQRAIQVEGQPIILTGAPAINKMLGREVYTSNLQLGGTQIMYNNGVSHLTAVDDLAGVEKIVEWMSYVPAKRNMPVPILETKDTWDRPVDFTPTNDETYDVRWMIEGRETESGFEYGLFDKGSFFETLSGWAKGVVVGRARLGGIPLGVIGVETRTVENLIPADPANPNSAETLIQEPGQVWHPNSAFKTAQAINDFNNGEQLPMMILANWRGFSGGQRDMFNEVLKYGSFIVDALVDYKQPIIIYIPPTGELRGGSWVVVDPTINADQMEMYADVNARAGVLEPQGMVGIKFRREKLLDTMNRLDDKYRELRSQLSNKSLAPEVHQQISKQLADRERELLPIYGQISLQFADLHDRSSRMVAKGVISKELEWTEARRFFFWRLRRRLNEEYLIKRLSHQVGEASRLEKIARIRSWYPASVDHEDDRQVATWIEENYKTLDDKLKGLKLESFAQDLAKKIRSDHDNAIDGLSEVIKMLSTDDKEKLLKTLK

[5] = growth inhibition at 48 hours vs 2% DMSO control
[6] = growth inhibition vs 2% DMSO control at 48 hours

Row | SMILES | IC90 (Septoria tritici (St); [5]) [µg/mL] | IC90 (Septoria tritici (St); [6]) [µg/mL] | IC50 (human (hACC2); Table 2a) [nM] | IC50 (human (hACC2); Table 2b, additional results) [nM] | IC90 (Diplodia maydis (Dm); [5]) [µg/mL] | IC90 (Diplodia maydis (Dm); [6]) [µg/mL] | IC90 [1, 5] [µg/mL] | IC90 [1, 6] [µg/mL] | IC90 [2, 5] [µg/mL] | IC90 [2, 6] [µg/mL] | IC90 [3, 5] [µg/mL] | IC90 [3, 6] [µg/mL] | IC90 [4, 5] [µg/mL] | IC90 [4, 6] [µg/mL] | MIC (C. parapsilosis; Table 3a) [µg/mL] | MIC (C. parapsilosis; Table 3b (additional results)) [µg/mL] | IC90 (Rhizoctonia solani (Rs); [5]) [µg/mL] | IC90 (Rhizoctonia solani (Rs); [6]) [µg/mL] | IC50 (fungal (fACC2); Table 2a) [nM] | IC50 (fungal (fACC2); Table 2b, additional results) [nM]
1 | COc1ccc(F)cc1[C@H](Cn1c(=O)n(C(C)(C)C(=O)NC(C)C)c(=O)c2c(C)c(-n3nccn3)sc21)OCCC(N)=O [Compound I-90, (R)-2-(1-(2-(3-amino-3-oxopropoxy)-2-(5-fluoro-2-metho-xyphenyl)ethyl)-5-methyl-2,4-dioxo-6-(2H-1,2,3-triazol-2-yl)-1,4-dihydro-thieno[2,3-d]pyrimidin-3(2H)-yl)-N-isopropyl-2-methylpropanamide] | > 50 | > 50 | 10 to 40 | 10 to 40 | > 50 | > 50 | 0.4 (≈ 0.65 µM) | 0.4 (≈ 0.65 µM) | 0.4 (≈ 0.65 µM) | 0.4 (≈ 0.65 µM) | 10 (≈ 16.2 µM) | > 50 | > 50 | > 50 | 2.1 to 4 (≈ 3.41 to 6.5 µM) | 0.25 to 1 (≈ 0.406 to 1.62 µM) | 2 (≈ 3.25 µM) | 2 (≈ 3.25 µM) | 1 to 5 | 1 to 5
2 | COc1ccc(F)cc1[C@H](Cn1c(=O)n(C(C)(C)C(=O)NC(C)C)c(=O)c2c(C)c(-n3nccn3)sc21)OCCC#N [Compound I-91, (R)-2-(1-(2-(2-cyanoethoxy)-2-(5-fluoro-2-methoxy-phenyl)ethyl)-5-methyl-2,4-dioxo-6-(2H-1,2,3-triazol-2-yl)-1,4-dihydro-thieno[2,3-d]pyrimidin-3(2H)-yl)-N-isopropyl-2-methylpropanamide] | > 50 | > 50 | 10 to 40 | 10 to 40 | 0.08 (≈ 0.134 µM) | 0.08 (≈ 0.134 µM) | 0.08 (≈ 0.134 µM) | 0.08 (≈ 0.134 µM) | 0.08 (≈ 0.134 µM) | 0.08 (≈ 0.134 µM) | 0.08 (≈ 0.134 µM) | 0.08 (≈ 0.134 µM) | 2 (≈ 3.35 µM) | 10 (≈ 16.7 µM) | 0.06 to 0.24 (≈ 0.1 to 0.402 µM) | 0.25 to 1 (≈ 0.418 to 1.67 µM) | 0.08 (≈ 0.134 µM) | 0.08 (≈ 0.134 µM) | 1 to 5 | 1 to 5
